The source made the active and inactive calls. The calls are words filed in the database; no cut-off is given here.
Experiments:
[1] = target: High affinity nerve growth factor receptor (Homo sapiens, UniProt P04629); assay: Inhibition of TrkA
[2] = target: T1, Inhibitor of nuclear factor kappa-B kinase subunit alpha (Homo sapiens, UniProt O15111); assay: Inhibition of IKKalpha
T1 sequence (O15111 whole entry): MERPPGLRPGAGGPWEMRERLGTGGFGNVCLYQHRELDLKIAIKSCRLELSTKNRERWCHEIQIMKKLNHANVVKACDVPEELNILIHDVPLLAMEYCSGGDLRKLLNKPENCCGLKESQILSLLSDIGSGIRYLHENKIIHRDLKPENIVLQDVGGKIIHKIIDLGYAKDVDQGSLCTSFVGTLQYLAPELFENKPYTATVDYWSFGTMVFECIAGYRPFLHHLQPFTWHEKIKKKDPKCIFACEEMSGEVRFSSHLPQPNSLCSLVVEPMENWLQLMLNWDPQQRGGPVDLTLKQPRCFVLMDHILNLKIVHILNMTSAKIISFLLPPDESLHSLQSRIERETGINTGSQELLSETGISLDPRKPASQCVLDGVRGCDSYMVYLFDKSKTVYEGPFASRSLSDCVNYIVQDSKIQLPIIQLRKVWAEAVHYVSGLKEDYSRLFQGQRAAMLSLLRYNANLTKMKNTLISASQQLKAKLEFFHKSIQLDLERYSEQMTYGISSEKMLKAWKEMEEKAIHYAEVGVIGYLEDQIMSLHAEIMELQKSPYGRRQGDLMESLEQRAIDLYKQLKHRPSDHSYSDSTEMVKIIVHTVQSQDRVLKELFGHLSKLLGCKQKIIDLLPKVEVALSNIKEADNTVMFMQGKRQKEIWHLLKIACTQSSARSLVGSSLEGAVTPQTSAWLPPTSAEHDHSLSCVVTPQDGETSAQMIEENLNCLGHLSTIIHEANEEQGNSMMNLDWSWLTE

[3] = target: T2, Serine/threonine-protein kinase Sgk1 (Homo sapiens) (UniProt O00141); assay: Inhibition of SGK at 10 uM
T2 sequence (whole entry): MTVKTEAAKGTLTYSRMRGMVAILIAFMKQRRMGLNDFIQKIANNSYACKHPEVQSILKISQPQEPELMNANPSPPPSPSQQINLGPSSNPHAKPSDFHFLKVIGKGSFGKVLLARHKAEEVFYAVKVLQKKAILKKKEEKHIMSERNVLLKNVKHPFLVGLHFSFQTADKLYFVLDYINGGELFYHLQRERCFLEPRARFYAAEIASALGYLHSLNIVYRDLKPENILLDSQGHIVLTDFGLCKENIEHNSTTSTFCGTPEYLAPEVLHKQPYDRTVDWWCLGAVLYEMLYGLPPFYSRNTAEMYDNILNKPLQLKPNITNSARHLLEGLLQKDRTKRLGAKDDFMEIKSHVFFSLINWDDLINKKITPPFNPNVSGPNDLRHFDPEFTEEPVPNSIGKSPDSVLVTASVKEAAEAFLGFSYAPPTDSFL

[4] = target: T3, Tyrosine-protein kinase ITK/TSK (Homo sapiens, UniProt Q08881); assay: Inhibition of Itk
T3 sequence (Q08881 whole entry): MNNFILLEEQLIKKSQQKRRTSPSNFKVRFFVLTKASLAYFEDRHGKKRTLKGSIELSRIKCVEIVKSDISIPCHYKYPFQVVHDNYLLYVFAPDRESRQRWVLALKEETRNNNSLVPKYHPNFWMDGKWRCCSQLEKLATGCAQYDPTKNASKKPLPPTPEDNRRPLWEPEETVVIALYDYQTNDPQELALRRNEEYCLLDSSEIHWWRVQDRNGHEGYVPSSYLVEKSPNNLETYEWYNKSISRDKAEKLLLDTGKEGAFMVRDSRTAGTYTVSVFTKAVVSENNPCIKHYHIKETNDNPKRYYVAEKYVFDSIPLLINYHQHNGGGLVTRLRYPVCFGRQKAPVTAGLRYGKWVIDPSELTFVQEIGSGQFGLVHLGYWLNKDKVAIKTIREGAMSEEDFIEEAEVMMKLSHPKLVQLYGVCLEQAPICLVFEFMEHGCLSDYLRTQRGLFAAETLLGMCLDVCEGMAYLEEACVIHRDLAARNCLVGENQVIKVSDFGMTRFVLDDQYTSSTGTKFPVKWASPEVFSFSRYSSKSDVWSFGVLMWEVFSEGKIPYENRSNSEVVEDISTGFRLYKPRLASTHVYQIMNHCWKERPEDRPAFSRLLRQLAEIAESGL

[5] = Inhibition of AMPK at 10 uM
[6] = Inhibition of PH domain deficient PKBdelta at 10 uM
[7] = Plasma concentration in mouse at 10 mg/kg, po after 120 mins; assay type: ADME, organism-based; set-up: dose 10 mg/kg, route oral
Blood = assay: Inhibition of LPS-induced TNFalpha production in human whole blood; assay type: functional, tissue-based
[8] = target: Mitogen-activated protein kinase 14 (Homo sapiens) (UniProt Q16539); assay: Inhibition of p38alpha at 10 uM
Sequence of Mitogen-activated protein kinase 14 (Homo sapiens) (Q16539 whole entry): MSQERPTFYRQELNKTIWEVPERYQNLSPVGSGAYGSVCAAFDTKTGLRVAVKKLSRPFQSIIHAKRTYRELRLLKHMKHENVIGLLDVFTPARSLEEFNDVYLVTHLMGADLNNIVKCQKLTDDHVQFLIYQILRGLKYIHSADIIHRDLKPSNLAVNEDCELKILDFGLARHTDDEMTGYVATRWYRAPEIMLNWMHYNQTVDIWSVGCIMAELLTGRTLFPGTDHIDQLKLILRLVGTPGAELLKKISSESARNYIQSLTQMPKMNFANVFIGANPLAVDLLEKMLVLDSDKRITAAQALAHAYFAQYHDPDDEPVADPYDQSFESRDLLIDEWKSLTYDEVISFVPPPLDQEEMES

[9] = target: Mitogen-activated protein kinase 1 (Homo sapiens) (UniProt P28482); assay: Inhibition of MAPK2/ERK2 at 10 uM
Sequence of Mitogen-activated protein kinase 1 (Homo sapiens) (P28482 whole entry): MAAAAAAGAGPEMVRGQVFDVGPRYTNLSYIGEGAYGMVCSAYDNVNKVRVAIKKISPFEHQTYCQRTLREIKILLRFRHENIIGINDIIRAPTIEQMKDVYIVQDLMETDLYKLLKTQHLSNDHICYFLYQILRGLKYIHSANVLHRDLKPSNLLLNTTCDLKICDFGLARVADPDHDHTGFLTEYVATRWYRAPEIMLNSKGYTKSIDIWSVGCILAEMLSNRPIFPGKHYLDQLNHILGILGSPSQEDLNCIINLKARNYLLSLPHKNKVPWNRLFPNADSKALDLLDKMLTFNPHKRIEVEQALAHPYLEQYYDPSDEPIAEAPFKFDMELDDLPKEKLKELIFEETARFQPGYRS

[10] = target: T4, Mitogen-activated protein kinase 13 (Homo sapiens) (UniProt O15264); assay: Inhibition of p38delta at 10 uM
T4 sequence (whole entry): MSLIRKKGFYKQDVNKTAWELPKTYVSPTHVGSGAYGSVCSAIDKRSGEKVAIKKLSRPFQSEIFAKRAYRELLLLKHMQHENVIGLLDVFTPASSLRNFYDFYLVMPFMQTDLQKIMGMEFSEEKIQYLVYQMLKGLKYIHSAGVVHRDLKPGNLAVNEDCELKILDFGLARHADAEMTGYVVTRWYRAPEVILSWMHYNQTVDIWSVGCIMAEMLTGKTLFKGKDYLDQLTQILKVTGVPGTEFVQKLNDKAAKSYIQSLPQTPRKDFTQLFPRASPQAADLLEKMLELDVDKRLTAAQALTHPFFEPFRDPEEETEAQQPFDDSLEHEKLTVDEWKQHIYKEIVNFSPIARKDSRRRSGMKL

[11] = target: Casein kinase I isoform alpha (Homo sapiens) (UniProt P48729); assay: Inhibition of CK1 at 10 uM
Sequence of Casein kinase I isoform alpha (Homo sapiens) (P48729 2-337 limits assumed): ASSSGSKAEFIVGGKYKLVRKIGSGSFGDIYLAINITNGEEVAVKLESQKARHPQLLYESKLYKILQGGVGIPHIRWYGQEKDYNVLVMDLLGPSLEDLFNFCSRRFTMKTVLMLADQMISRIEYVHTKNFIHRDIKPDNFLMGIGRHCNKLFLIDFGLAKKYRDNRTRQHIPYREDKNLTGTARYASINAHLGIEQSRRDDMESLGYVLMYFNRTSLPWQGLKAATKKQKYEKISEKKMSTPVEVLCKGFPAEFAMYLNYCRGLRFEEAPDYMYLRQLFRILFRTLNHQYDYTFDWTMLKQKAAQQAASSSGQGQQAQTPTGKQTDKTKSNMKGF

[12] = target: Tyrosine-protein kinase BTK (Homo sapiens, UniProt Q06187); assay: Inhibition of Btk
Sequence of Tyrosine-protein kinase BTK (Q06187 whole entry): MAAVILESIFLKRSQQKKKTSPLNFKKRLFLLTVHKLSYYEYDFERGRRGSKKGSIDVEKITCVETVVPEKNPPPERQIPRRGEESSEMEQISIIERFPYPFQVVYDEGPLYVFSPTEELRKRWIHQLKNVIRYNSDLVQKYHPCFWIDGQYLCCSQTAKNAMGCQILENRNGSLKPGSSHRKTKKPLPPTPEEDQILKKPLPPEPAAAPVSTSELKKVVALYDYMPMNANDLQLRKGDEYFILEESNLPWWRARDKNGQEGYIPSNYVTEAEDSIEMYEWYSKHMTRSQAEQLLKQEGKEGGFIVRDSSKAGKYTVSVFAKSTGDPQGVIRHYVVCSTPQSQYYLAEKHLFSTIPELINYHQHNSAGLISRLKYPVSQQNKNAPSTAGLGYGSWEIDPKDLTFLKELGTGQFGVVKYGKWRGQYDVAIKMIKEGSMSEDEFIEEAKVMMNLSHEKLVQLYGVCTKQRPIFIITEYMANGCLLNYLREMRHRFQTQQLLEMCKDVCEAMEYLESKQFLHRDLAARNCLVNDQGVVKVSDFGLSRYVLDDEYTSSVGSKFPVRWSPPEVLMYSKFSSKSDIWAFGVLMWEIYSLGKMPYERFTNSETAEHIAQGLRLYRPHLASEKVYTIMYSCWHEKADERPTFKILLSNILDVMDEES

[13] = target: Dual specificity mitogen-activated protein kinase kinase 1 (Homo sapiens) (UniProt Q02750); assay: Inhibition of MKK1 at 10 uM
Sequence of Dual specificity mitogen-activated protein kinase kinase 1 (Homo sapiens) (Q02750 whole entry): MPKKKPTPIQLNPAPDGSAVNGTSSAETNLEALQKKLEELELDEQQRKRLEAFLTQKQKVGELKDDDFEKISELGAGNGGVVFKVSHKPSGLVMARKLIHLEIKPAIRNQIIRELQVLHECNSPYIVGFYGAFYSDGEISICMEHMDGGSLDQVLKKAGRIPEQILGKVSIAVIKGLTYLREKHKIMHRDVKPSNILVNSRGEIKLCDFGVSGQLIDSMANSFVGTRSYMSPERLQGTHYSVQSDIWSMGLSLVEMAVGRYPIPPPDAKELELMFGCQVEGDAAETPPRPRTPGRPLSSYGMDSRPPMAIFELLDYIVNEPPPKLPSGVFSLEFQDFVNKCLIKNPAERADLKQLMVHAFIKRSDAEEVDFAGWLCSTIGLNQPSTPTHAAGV

HeLa = assay: Inhibition of TNF-alpha-induced NF-kappaB transfected in human HeLa cells preincubated for 30 mins before TNFalpha challenge after 6 hrs by luciferase reporter gene assay; assay type: cell-based
Mus musculus = assay: Inhibition of LPS-induced TNFalpha production in mouse at 100 mg/kg, po administered 60 mins before LPS challenge; assay type: functional
[14] = target: Hepatocyte growth factor receptor (Homo sapiens, UniProt P08581); assay: Inhibition of HGFR
Sequence of Hepatocyte growth factor receptor (P08581 whole entry): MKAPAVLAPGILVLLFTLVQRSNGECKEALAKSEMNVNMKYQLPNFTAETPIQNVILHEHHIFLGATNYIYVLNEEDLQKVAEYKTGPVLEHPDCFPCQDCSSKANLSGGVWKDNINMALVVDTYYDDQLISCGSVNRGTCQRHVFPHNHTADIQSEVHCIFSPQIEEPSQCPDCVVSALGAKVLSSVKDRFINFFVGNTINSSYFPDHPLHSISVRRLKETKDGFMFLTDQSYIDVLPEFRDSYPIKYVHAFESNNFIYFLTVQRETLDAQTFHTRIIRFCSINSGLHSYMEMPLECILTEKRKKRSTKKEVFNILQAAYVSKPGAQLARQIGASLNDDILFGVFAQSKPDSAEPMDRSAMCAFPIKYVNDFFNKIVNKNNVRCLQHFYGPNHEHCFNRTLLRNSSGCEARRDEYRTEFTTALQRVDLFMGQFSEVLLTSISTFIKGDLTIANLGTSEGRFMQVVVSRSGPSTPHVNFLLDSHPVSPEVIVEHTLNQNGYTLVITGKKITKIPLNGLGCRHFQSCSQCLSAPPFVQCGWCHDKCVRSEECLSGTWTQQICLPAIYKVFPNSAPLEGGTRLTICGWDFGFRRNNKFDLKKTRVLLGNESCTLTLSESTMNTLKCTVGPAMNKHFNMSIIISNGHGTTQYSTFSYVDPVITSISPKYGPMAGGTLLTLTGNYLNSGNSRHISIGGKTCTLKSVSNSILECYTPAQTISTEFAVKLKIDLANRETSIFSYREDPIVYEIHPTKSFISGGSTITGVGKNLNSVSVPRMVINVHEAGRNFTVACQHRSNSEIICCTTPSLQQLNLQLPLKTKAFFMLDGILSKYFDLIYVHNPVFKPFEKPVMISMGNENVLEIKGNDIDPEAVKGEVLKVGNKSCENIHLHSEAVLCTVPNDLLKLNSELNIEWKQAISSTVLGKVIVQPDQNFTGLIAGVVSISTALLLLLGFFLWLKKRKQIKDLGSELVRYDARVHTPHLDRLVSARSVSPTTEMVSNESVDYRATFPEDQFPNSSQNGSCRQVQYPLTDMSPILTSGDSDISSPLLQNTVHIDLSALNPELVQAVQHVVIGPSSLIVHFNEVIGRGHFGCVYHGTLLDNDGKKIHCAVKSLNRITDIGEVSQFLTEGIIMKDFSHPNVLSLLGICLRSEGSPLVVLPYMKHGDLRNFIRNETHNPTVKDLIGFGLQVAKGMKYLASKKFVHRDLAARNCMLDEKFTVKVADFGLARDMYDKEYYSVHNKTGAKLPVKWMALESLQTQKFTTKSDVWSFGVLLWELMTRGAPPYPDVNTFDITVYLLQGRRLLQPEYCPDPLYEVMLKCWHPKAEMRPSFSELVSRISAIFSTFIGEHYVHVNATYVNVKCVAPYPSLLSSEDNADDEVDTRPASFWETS

Sequence of High affinity nerve growth factor receptor (P04629 whole entry): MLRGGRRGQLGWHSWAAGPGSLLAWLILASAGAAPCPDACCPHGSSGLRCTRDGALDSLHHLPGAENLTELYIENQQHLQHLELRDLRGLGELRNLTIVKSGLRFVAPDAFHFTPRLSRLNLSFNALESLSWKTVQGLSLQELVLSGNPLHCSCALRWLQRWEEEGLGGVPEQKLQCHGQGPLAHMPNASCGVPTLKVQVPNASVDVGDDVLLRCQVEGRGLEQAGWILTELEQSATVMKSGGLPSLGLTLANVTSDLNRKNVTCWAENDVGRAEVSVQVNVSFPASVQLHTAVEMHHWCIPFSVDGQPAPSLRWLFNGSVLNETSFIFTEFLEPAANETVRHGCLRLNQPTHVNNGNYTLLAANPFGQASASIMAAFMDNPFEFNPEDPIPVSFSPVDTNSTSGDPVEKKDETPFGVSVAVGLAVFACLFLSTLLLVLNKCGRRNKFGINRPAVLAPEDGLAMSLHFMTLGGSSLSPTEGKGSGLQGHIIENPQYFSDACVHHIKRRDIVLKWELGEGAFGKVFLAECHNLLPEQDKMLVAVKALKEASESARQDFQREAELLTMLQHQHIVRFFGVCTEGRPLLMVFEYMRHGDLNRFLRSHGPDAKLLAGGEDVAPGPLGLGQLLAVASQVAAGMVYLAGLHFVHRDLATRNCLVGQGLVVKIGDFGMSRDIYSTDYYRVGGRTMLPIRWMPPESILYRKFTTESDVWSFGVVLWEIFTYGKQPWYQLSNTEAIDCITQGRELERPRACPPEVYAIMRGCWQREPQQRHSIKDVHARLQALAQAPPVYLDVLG

IC50 [1] [µM]	IC50 [2] [µM]	Activity [3]	IC50 [4] [µM]	Activity [5]	Activity [6]	concentration at 2 h [7] [nM]	IC50 (Blood) [µM]	Activity [8]	Activity [9]	Activity [10]	Activity [11]	IC50 [12] [µM]	Activity [13]	IC50 (HeLa) [µM]	IC50 [14] [µM]	SMILES	inhibition in vivo at 100 mg/kg (Mus musculus) [%]
> 7	3.4	inactive	> 7	inactive	inactive	< 10	3.2	inactive	inactive	inactive	inactive	> 7	inactive	7.5	> 7	CCCc1cc(N2CCNCC2)nc2sc(C(N)=O)c(N)c12	74
	11.2	inactive	> 7	inactive	inactive	1600	9.8	inactive	inactive	inactive	inactive	> 7	inactive	5.3	> 7	CCCc1cc(N2CCC(O)CC2)nc2sc(C(N)=O)c(N)c12	98
> 7	13.3	inactive	> 7	inactive	inactive	170	13	inactive	inactive	inactive	inactive	> 7	inactive	6.1	> 7	CCCc1cc(N2CCCC(O)C2)nc2sc(C(N)=O)c(N)c12 (stereo unspecified)	93
> 7	0.09	inactive	> 7	inactive	inactive	< 10	1.6	inactive	inactive	inactive	inactive	> 7	inactive	1.5		CCCc1cc(N2CCC(N)CC2)nc2sc(C(N)=O)c(N)c12	81

Source: ChEMBL document CHEMBL1156029, “The discovery of thienopyridine analogues as potent IkappaB kinase beta inhibitors. Part II” (Bioorg Med Chem Lett, 2009)
